US20240158425A1, “MODIFIED ADENINES” (NUCLERA LTD, priority 2021, published 2024)

Columns and labels:
Assay type in all cases: physicochemical
[1] = Stability in Oxime Removal Solution (1×ORS) buffer, monitored by LC/MS; details: 1×ORS buffer (methoxyamine), 24 h at 37 deg C.
Method: (§1) Analytical LC/MS was performed on the Agilent 1100 Series system. Nucleosides were analysed using gradient of acetonitrile in 20 mM NH4OAc, pH 4.5. The 1 M stock solution of NH4OAc, pH 4.5 was prepared by dissolving NH4OAc (g) in H2O and adjusted to pH 4.5 with acetic acid. This was further diluted with water to the concentrations required for the chromatography.
(§2) Column: Ascentis Express C18 15×4.6 mm, 5 μm; Column temperature 30° C., Flow rate 1 mL/min, UV detection 254 nm.
Stock solution of ORS buffer (2×) was prepared from methoxyamine hydrochloride (60 mg, 0.71 mmol), water (MilliQ) (200 uL), pH 5.5 sodium acetate (200 uL) and 10 M sodium hydroxide (53.4 uL) and water (1.4 mL). 2-chloro-2′-deoxyadenosine (1 mg) was dissolved in milliQ water (0.5 mL) and 2×ORS (0.5 mL) was added. The resultant solution was incubated at 37 deg C. and the stability was monitored at intervals using LC/MS. […] 2. Stability of 2-fluoro-2′-deoxyadenosine in ORS Buffer
2-fluoro-2′-deoxyadenosine (1 mg) was dissolved in milliQ water (0.5 mL) and 2×ORS (0.5 mL) was added. The resultant solution was incubated at 37 deg C. and the stability was monitored at intervals using LC/MS.

[2] = Stability of 2-halogenated 2′-deoxyadenosines and 2′-deoxyadenosine in NDS buffer (sodium nitrite, pH 5.5), LC/MS; details: for Reaction in NDS buffer (products formed; deaminated nucleoside): LC/MS
Method: as §1, §2
2 M sodium acetate pH 5.5 buffer was made from sodium acetate trihydrate (2.72 g) made up to 9.5 mL with water, then titrated to pH 5.5 with acetic acid, and finally made up to 10 mL. NDS buffer was made from acetate solution (3.934 mL), sodium nitrite (380 mg, 5.5 mmol) and water (3.934 mL), then adjusted to pH 5.5 with 10 M sodium hydroxide (˜1 drop required). 2-chloro-2′-deoxyadenosine (0.5 mg), 2-fluoro-2′-deoxyadenosine (0.5 mg) and 2′-deoxyadenosine (0.5 mg) as a control were respectively placed in three vials and each dissolved in 1 mL solution of NDS buffer. The stability was monitored at intervals using LC/MS.

[3] = Stability of 8-aza-adenosine and 2′-deoxyadenosine in NDS buffer, LC/MS; details: for Reaction in NDS buffer (products formed; deaminated nucleoside): LC/MS
Method: A solution of NDS made up from sodium nitrite, sodium acetate pH 5.5) and titrated to pH 5.5 with 10 M NaOH was obtained (2 mL).
1 mL aliquots of this solution were added to 8-aza-2′-dA (0.5 mg) and 2′-dA (0.5 mg, as a control to compare how additional N atom at 8 position of nucleobase affects reactivity NH2—C6 group with NDS) and analysed at intervals using LC/MS.

[4] = buffer, 24 h, 0.5 mg/mL, pH 5.5
[5] = buffer, 48 h, 0.5 mg/mL, pH 5.5
[6] = buffer, 120 h, 0.5 mg/mL, pH 5.5

Row | In (nucleoside peak area %) ([3]; 24 h) | Remaining nucleoside, peak area % ([3]; 24 h) [peak area %] | In (nucleoside peak area %) ([3]; 96 h) | Remaining nucleoside, peak area % ([3]; 96 h) [peak area %] | In (nucleoside peak area %) ([3]; 120 h) | Remaining nucleoside, peak area % ([3]; 120 h) [peak area %] | In (nucleoside peak area %) ([3]; 146 h) | Remaining nucleoside, peak area % ([3]; 146 h) [peak area %] | Compound | Reaction in NDS buffer (products formed; deaminated nucleoside) ([2]; NDS buffer) | Reaction in NDS buffer (products formed; deaminated nucleoside) [3] | also measured
1 | – | – | – | – | – | – | – | – | Nc1nc(Cl)nc2c1ncn2[C@H]1C[C@H](O)[C@@H](CO)O1 [2-Cl-dA, 2-chloro-2′-deoxyadenosine] | react in the NDS buffer giving rise to 1 product | – | Stability in 1×ORS buffer (formation of products) [1]: did not lead to any products; In (remaining nucleoside) ([2]; NDS buffer, 24 h): 4.599; Remaining nucleoside ([2]; NDS buffer, 24 h): 99.42%; In (remaining nucleoside) ([2]; NDS buffer, 48 h): 4.592; Remaining nucleoside ([2]; NDS buffer, 48 h): 98.66%; In (remaining nucleoside) ([2]; NDS buffer, 120 h): 4.57; Remaining nucleoside ([2]; NDS buffer, 120 h): 96.54%; Deamination in NDS buffer, times slower than 2′-dA ([2]; NDS buffer, same conditions as 2′-dA): 5.5 ×
2 | 4.592 | 98.65 | 4.538 | 93.49 | 4.519 | 91.74 | 4.5 | 90 | Nc1ncnc2c1nnn2[C@@H]1O[C@H](CO)[C@@H](O)[C@H]1O [8-aza-A, 8-aza-adenosine] | – | react in the NDS buffer giving rise to 1 product | Deamination in NDS buffer, times slower than 2′-dA ([3]; same conditions as 2′-dA): 3.2 ×
3 | 4.545 | 94.15 | 4.352 | 77.6 | 4.29 | 73 | 4.248 | 70 | Nc1ncnc2c1ncn2[C@H]1C[C@H](O)[C@@H](CO)O1 [dA, 2′-deoxyadenosine] | react in the NDS buffer giving rise to 1 product | react in the NDS buffer giving rise to 1 product | In (remaining nucleoside) [2, 4]: 4.571; Remaining nucleoside [2, 4]: 96.66%; In (remaining nucleoside) [2, 5]: 4.531; Remaining nucleoside [2, 5]: 92.85%; In (remaining nucleoside) [2, 6]: 4.416; Remaining nucleoside [2, 6]: 82.77%
